PubChem BioAssay AID248 (DTP/NCI, 2004)
Values joined by “and” are separate entries in the source; they are usually repeats but may differ in a detail not shown here. Identical values can stand only once. Inconclusive results and toxic doses are left out. Rule as the data show it: active = T/C of 150% or more; inactive = T/C below 125%.

Test system: L1210 leukemia ip in BDF1 mice, survival T/C
Assay: NCI In Vivo Anticancer Drug Screen. Data for tumor model L1210 Leukemia (intraperitoneal) in B6D2F1 (BDF1) mice
Settings: endpoint: mean survival time, higher = longer survival
Outline: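 Value reflects the ratio of survival in compound-treated mice to survival in vehicle-treated controls, with both groups carrying the same transplanted tumor.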

[1] = dose: 100.0 mg/kg/injection, schedule: Q01DX009 (ip), vehicle: saline with Tween-80
[2] = dose: 200.0 mg/kg/injection, schedule: Q01DX009 (ip), vehicle: saline with Tween-80
[3] = dose: 100.0 mg/kg/injection, schedule: Q01DX001 (ip), vehicle: saline
[4] = dose: 200.0 mg/kg/injection, schedule: Q01DX001 (ip), vehicle: saline
[5] = dose: 400.0 mg/kg/injection, schedule: Q01DX001 (ip), vehicle: saline
[6] = dose: 50.0 mg/kg/injection, schedule: Q01DX001 (ip), vehicle: carboxymethylcellulose (CMC)
[7] = dose: 100.0 mg/kg/injection, schedule: Q01DX001 (ip), vehicle: carboxymethylcellulose (CMC)
[8] = dose: 200.0 mg/kg/injection, schedule: Q01DX001 (ip), vehicle: carboxymethylcellulose (CMC)
[9] = dose: 400.0 mg/kg/injection, schedule: Q01DX001 (ip), vehicle: carboxymethylcellulose (CMC)
[10] = dose: 50.0 mg/kg/injection, schedule: Q01DX009 (ip), vehicle: saline
[11] = dose: 100.0 mg/kg/injection, schedule: Q01DX009 (ip), vehicle: saline

Measured: T/C

COC(=O)C(=O)CC(=O)c1cccc(Cl)c1
inactive: dose: 10.0 mg/kg/injection, schedule: Q04DX002 (ip), vehicle: Klucel (hydroxypropylcellulose) (HPC) 92 % of control | dose: 20.0 mg/kg/injection, schedule: Q04DX002 (ip), vehicle: Klucel (hydroxypropylcellulose) (HPC) 96 % of control | dose: 40.0 mg/kg/injection, schedule: Q04DX002 (ip), vehicle: Klucel (hydroxypropylcellulose) (HPC) 105 % of control

c1ccc2c(c1)CCc1c-2[nH]c2ccccc12
inactive: [1] 96 % of control | [2] 94 % of control

CN1CCCN(C(=S)S)CC1
inactive: dose: 30.0 mg/kg/injection, schedule: Q01DX001 (ip), vehicle: saline 96 % of control | [3] 95 % of control

O=c1[nH]c(Cl)ncc1F
inactive: dose: 75.0 mg/kg/injection, schedule: Q01DX001 (ip), vehicle: saline 95 % of control | dose: 150.0 mg/kg/injection, schedule: Q01DX001 (ip), vehicle: saline 96 % of control | dose: 300.0 mg/kg/injection, schedule: Q01DX001 (ip), vehicle: saline 102 % of control

Cc1cc(NS(=O)(=O)c2ccc(N=Nc3c(N)nc(N)[nH]c3=O)cc2)nc(C)n1
inactive: [3] 97 % of control | [4] 89 % of control | [5] 92 % of control

COc1ccc(C(=O)CC(=O)c2ccc(OC)cc2)cc1
inactive: [6] 92 % of control | [7] 92 % of control | [8] 108 % of control | [9] 94 % of control

COc1ccc(C2C3CCC(C3)C2N)cc1 (centres undefined)
inactive: dose: 5.0 mg/kg/injection, schedule: Q04DX003 (ip), vehicle: saline 100 % of control | dose: 10.0 mg/kg/injection, schedule: Q01DX009 (ip), vehicle: saline with Tween-80 93 % of control | dose: 10.0 mg/kg/injection, schedule: Q04DX003 (ip), vehicle: saline 100 % of control and 97 % of control | dose: 20.0 mg/kg/injection, schedule: Q01DX009 (ip), vehicle: saline with Tween-80 91 % of control | dose: 20.0 mg/kg/injection, schedule: Q04DX003 (ip), vehicle: saline 97 % of control | dose: 25.0 mg/kg/injection, schedule: Q01DX009 (ip), vehicle: saline with Tween-80 90 % of control | dose: 40.0 mg/kg/injection, schedule: Q04DX003 (ip), vehicle: saline 96 % of control | dose: 50.0 mg/kg/injection, schedule: Q01DX009 (ip), vehicle: saline with Tween-80 95 % of control | [1] 88 % of control | dose: 100.0 mg/kg/injection, schedule: Q04DX003 (ip), vehicle: saline with Tween-80 100 % of control

NC(N)=N/N=C(/c1ccccc1)c1ccc(F)cc1
inactive: dose: 6.25 mg/kg/injection, schedule: Q01DX009 (ip), vehicle: carboxymethylcellulose (CMC) 95 % of control | dose: 12.5 mg/kg/injection, schedule: Q01DX009 (ip), vehicle: carboxymethylcellulose (CMC) 97 % of control | dose: 15.0 mg/kg/injection, schedule: Q01DX Z (ip), vehicle: saline 95 % of control | dose: 15.0 mg/kg/injection, schedule: Q01DX Z (oral), vehicle: saline 107 % of control | dose: 20.0 mg/kg/injection, schedule: Q01DX001 (ip), vehicle: other 107 % of control | dose: 20.0 mg/kg/injection, schedule: Q01DX009 (ip), vehicle: carboxymethylcellulose (CMC) 94 % of control | dose: 20.0 mg/kg/injection, schedule: Q01DX009 (ip), vehicle: other 103 % of control | dose: 25.0 mg/kg/injection, schedule: Q01DX009 (ip), vehicle: carboxymethylcellulose (CMC) 103 % of control | dose: 30.0 mg/kg/injection, schedule: Q01DX Z (ip), vehicle: saline 108 % of control | dose: 30.0 mg/kg/injection, schedule: Q01DX Z (oral), vehicle: saline 107 % of control | dose: 40.0 mg/kg/injection, schedule: Q01DX001 (ip), vehicle: other 110 % of control | dose: 40.0 mg/kg/injection, schedule: Q01DX009 (ip), vehicle: carboxymethylcellulose (CMC) 94 % of control | dose: 40.0 mg/kg/injection, schedule: Q01DX009 (ip), vehicle: other 90 % of control | dose: 50.0 mg/kg/injection, schedule: Q01DX009 (ip), vehicle: carboxymethylcellulose (CMC) 115 % of control | dose: 80.0 mg/kg/injection, schedule: Q01DX009 (ip), vehicle: carboxymethylcellulose (CMC) 118 % of control

O=C1C=CC(=O)C1
inactive: dose: 2.25 mg/kg/injection, schedule: Q01DX009 (ip), vehicle: saline 111 % of control | dose: 2.25 mg/kg/injection, schedule: Q04DX003 (ip), vehicle: saline 97 % of control | dose: 4.5 mg/kg/injection, schedule: Q01DX009 (ip), vehicle: saline 106 % of control | dose: 4.5 mg/kg/injection, schedule: Q04DX003 (ip), vehicle: saline 98 % of control | dose: 9.0 mg/kg/injection, schedule: Q04DX003 (ip), vehicle: saline 96 % of control

O=C(NO)Oc1cccc2ccccc12
inactive: dose: 25.0 mg/kg/injection, schedule: Q04DX002 (ip), vehicle: saline with Tween-80 105 % of control | dose: 50.0 mg/kg/injection, schedule: Q04DX002 (ip), vehicle: saline with Tween-80 119 % of control | dose: 100.0 mg/kg/injection, schedule: Q04DX002 (ip), vehicle: saline with Tween-80 89 % of control

OC(C1CC2CCC1C2)(C1CC2CCC1C2)C1CC2CCC1C2 (centres undefined)
inactive: [1] 92 % of control | dose: 100.0 mg/kg/injection, schedule: Q04DX003 (ip), vehicle: Klucel (hydroxypropylcellulose) (HPC) 94 % of control | [2] 97 % of control | dose: 200.0 mg/kg/injection, schedule: Q04DX003 (ip), vehicle: Klucel (hydroxypropylcellulose) (HPC) 96 % of control | dose: 400.0 mg/kg/injection, schedule: Q01DX009 (ip), vehicle: saline with Tween-80 90 % of control | dose: 400.0 mg/kg/injection, schedule: Q04DX003 (ip), vehicle: Klucel (hydroxypropylcellulose) (HPC) 97 % of control

CCC(=O)CC1CCCC(CC(=O)CC)N1C (centres undefined)
inactive: dose: 9.5 mg/kg/injection, schedule: Q01DX001 (ip), vehicle: saline 96 % of control | dose: 19.0 mg/kg/injection, schedule: Q01DX001 (ip), vehicle: saline 104 % of control | dose: 38.0 mg/kg/injection, schedule: Q01DX001 (ip), vehicle: saline 102 % of control

CCn1cnc2c(SC)nc(N)nc21
inactive: dose: 37.5 mg/kg/injection, schedule: Q01DX009 (ip), vehicle: Klucel (hydroxypropylcellulose) (HPC) 101 % of control | dose: 50.0 mg/kg/injection, schedule: Q04DX003 (ip), vehicle: other 101 % of control | dose: 75.0 mg/kg/injection, schedule: Q01DX009 (ip), vehicle: Klucel (hydroxypropylcellulose) (HPC) 103 % of control | dose: 100.0 mg/kg/injection, schedule: Q04DX003 (ip), vehicle: other 104 % of control | dose: 150.0 mg/kg/injection, schedule: Q01DX009 (ip), vehicle: Klucel (hydroxypropylcellulose) (HPC) 108 % of control | dose: 200.0 mg/kg/injection, schedule: Q04DX003 (ip), vehicle: other 87 % of control

CCCCOC(=O)c1ccc(NC(=O)Nc2ccc([N+](=O)[O-])cc2OC)cc1
inactive: dose: 100.0 mg/kg/injection, schedule: Q01DX009 (ip), vehicle: other 98 % of control | dose: 200.0 mg/kg/injection, schedule: Q01DX009 (ip), vehicle: other 104 % of control | dose: 400.0 mg/kg/injection, schedule: Q01DX009 (ip), vehicle: other 87 % of control

CC(=O)SC1CC(=O)OC1=O (centres undefined)
inactive: [10] 96 % of control | [3] 96 % of control | [11] 102 % of control | [4] 104 % of control | [5] 98 % of control

c1cc2c(c3c1CCCC3)CCCC2
inactive: [6] 92 % of control | [10] 101 % of control | [7] 97 % of control | [11] 94 % of control | dose: 100.0 mg/kg/injection, schedule: Q04DX003 (ip), vehicle: saline 91 % of control | [8] 91 % of control | dose: 200.0 mg/kg/injection, schedule: Q04DX003 (ip), vehicle: saline 101 % of control | [9] 94 % of control

Cc1ccc(S(C)=O)c(C)c1 (centres undefined)
inactive: [11] 97 % of control | dose: 200.0 mg/kg/injection, schedule: Q01DX009 (ip), vehicle: saline 96 % of control

O=c1[nH]cc(/C=N/O)c(=O)[nH]1
inactive: [7] 106 % of control | [8] 106 % of control | [9] 101 % of control

NC(=O)CC(NC(=O)OCc1ccccc1)C(=O)O (centres undefined)
inactive: dose: 50.0 mg/kg/injection, schedule: Q01DX009 (ip), vehicle: Klucel (hydroxypropylcellulose) (HPC) 95 % of control | dose: 100.0 mg/kg/injection, schedule: Q01DX009 (ip), vehicle: Klucel (hydroxypropylcellulose) (HPC) 95 % of control | dose: 200.0 mg/kg/injection, schedule: Q01DX009 (ip), vehicle: Klucel (hydroxypropylcellulose) (HPC) 109 % of control
